Laboratory results: US20100209513A1, “PHARMACEUTICAL COMPOSITION CONTAINING MICRONIZED PARTICLES OF NAPHTHOQUINONE-BASED COMPOUND” (priority 2007, published 2010)

What was measured:
[1] = Dissolution test, paddle method (Example 15); assay type: physicochemical; conditions: for Change of dissolution rate of micronized particles compared to before micronization: different time points, FIGS. 3 to 6, pH 6.8, 1.5% Tween 80, 37° C.; for Dissolution rate of 12 hours after microparticulation / Dissolution rate of 12 hours before microparticulation: paddle 75 rpm, 37° C., pH 6.8, 1.5% Tween 80; for Dissolution rate of 12 hours after microparticulation: after microparticulation (Jet mill or ball mill, no surfactant); for Increasing rate of dissolution rate of 12 hours: after versus before microparticulation
Description: Dissolution test was commonly carried out under the following condition.
(§1) The dissolution test was carried out according to the paddle method of Korean Phramacopeia. The paddle rate was 75 rpm, the temperature of an effluent was 37° C., and a test solution was a mixture solution of pH 6.8, 1.5% Tween 80. First, the test solution was filtered through a […] Membrane filter and centrifuged. Supernatant fluid was taken, and the content of drug was analyzed by HPLC, and the amount of released drug was measured at different time points. The drugs used for the dissolution test are Compounds 1, 5, 44 and 51 provided in Table 1, and the extract set forth in the Korean Patent No. 10-818586 which contains Compound 58 over 60 wt % (‘Compound 58 Extract’). Microparticulation was carried out using Jet mill or ball mill without any surfactant. The particle size of compounds was determined by HELOS measurement.

[2] = Particle size before and after micronization, HELOS measurement (Example 15); assay type: physicochemical; conditions: for Particle size X50 after micronization / Particle size X90 after micronization: after micronization by Jet mill or ball mill without surfactant
Description: as §1
Measurement of the particle size was carried out by putting approximately 3 ml of a sample into a cell for particle size measurement and measuring the particle size during 60 seconds per sample. The particle sizes before and after micronization are provided below.

[3] = Body weight change in ob/ob mice given suspensions of cryptotanshinone powder or micronized particles (Example 6); assay type: in vivo; conditions: ob/ob male mice; 400 mg/kg PO once a day
Description: 1 g of a simply finely-divided powder of cryptotanshinone, and 1 g of each micronized particles of cryptotanshinone compound according to the procedures of Examples 1 to 3 were mixed with 10 mL of distilled water, and the resulting mixtures were processed in a sonicator for 30 min to prepare suspensions of the cryptotanshinone compounds. 400 mg/kg of these suspensions in terms of cryptotanshinone content was administered to ob/ob mice once a day and changes in the body weight (BW) of animals were examined.
For this purpose, 10-week-old ob/ob male mice (Jackson Lab) as an obese mouse model of type 2 diabetes were purchased from Orient Co., Ltd., Korea and were allowed to acclimate to a new environment of the breeding room for 10 days prior to experiments. Animals were fed a solid feed (P5053, Labdiet) as a laboratory animal chow. The ob/ob male mice were housed and allowed to acclimate to a new environment for 10 days, in a breeding room maintained at a temperature of 22±2° C., humidity of 55±5%, and a 12-h light/dark (L/D) cycle (light from 8:00 a.m. to 8:00 p.m.). […]

[4] = Body weight change in DIO (diet-induced obesity) SD rats with varying dosages of micronized cryptotanshinone (Example 7); assay type: in vivo; conditions: for BW loss / Final BW: high-fat diet, Jet mill-micronized with 0.2% SLS
Description: Each of formulations composed of a mixture of Jet mill-micronized cryptotanshinone at 25 mg/kg, 50 mg/kg and 100 mg/kg with 0.2% (w/w) sodium lauryl sulfate was administered daily for 28 days to DIO (diet-induced obesity) SD rats in which obesity was caused by high-fat diet for 4 weeks. As a control, a surfactant SLS at a concentration of 0.2% was suspended in distilled water and a suspension was then administered to animals.

[5] = Particle size of micronized particles prepared in Examples 1 to 5; assay type: physicochemical; conditions: cryptotanshinone prior to supercritical micronization
Description: In order to develop a supercritical micronization process, 5 g of cryptotanshinone having a particle size distribution of 1 to 100 μm and an average particle size of 30 μm, and 0.5 g of sodium lauryl sulfate were dissolved in 45 mL of methylene chloride. Thereafter, the resulting solution of cryptotanshinone in methylene chloride was injected at a flow rate of 1 to 2 mL/min via a nozzle orifice with a diameter of 1/16 inch into a reaction vessel which was set to a temperature of 30° C., 80 bar, and 2,000 rpm and was filled with liquefied carbon dioxide, whereas carbon dioxide was injected at a flow rate of 10 to 20 mL/min via a nozzle orifice with a diameter of 1/16 inch using an ISCO pump.
In order to recover precipitates of small-sized particles from the liquid carbon dioxide solution as an insoluble solvent in the reaction vessel, a volume of carbon dioxide which is 15-fold that of the reaction vessel was flowed to remove the remaining organic solvent and the pressure of the reaction vessel was reduced to recover micronized particles of cryptotanshinone. […]
Micronizing of cryptotanshinone was carried out using a Jet mill (SJ-100, Nisshin, Japan). […] Micronized particles were recovered and a particle size was determined in terms of particle diameter by […]. […]

Compound | Change of dissolution rate of micronized particles compared to before micronization [1] | Dissolution rate of 12 hours after microparticulation [1] [%] | Dissolution rate of 12 hours before microparticulation [1] [%] | Particle size X50 after micronization [2] | Particle size X90 after micronization [2] | Particle size X50 before micronization [2] | Particle size X90 before micronization [2] | Increasing rate of dissolution rate of 12 hours [1] [%] | Final BW [3] [g] | Loss of body weight compared to the control group ([4]; 25, 50 and 100 mg/kg daily for 28 days, concentration-dependent) | BW loss ([4]; 25 mg/kg daily for 28 days) [%] | Final BW ([4]; 25 mg/kg daily for 28 days) [g] | BW loss ([4]; 50 mg/kg daily for 28 days) [%] | Final BW ([4]; 50 mg/kg daily for 28 days) [g] | BW loss ([4]; 100 mg/kg daily for 28 days) [%] | Final BW ([4]; 100 mg/kg daily for 28 days) [g] | Average particle size [5] [μm]
CC1(C)CCC2=C(O1)c1ccccc1C(=O)C2=O [Compound 1, 7,8-dihydro-2,2-dimethyl-2H-naphtho(2,3-b)dihydropyran-7,8-dione] | increased significantly | 95.52 | 67.19 | X50 = 2.39 μm | X90 = 5.03 μm | X50 = 27.83 μm | X90 = 33.74 μm | 42 | – | – | – | – | – | – | – | – | –
C[C@H]1COC2=C1C(=O)C(=O)c1c2ccc2c1CCCC2(C)C [Simply finely-divided cryptotanshinone, cryptotanshinone] | – | – | – | – | – | – | – | – | 57.5 ± 1.3 | – | – | – | – | – | – | – | –
cryptotanshinone [Compound 58] | – | – | – | – | – | – | – | – | – | significant loss of body weight | 16.9 ± 3.8 | 589.0 ± 50.4 | 15.4 ± 3.7 | 578.8 ± 54.6 | 6.2 ± 5.5 | 529.8 ± 59.1 | 30

The next lines start with results.

Change of dissolution rate of micronized particles compared to before micronization [1] | Dissolution rate of 12 hours after microparticulation [1] [%] | Dissolution rate of 12 hours before microparticulation [1] [%] | Particle size X50 after micronization [2] | Particle size X90 after micronization [2] | Particle size X50 before micronization [2] | Particle size X90 before micronization [2] | Increasing rate of dissolution rate of 12 hours [1] [%] | Compound | Final BW [3] [g] | Loss of body weight compared to the control group ([4]; 25, 50 and 100 mg/kg daily for 28 days, concentration-dependent) | BW loss ([4]; 25 mg/kg daily for 28 days) [%] | Final BW ([4]; 25 mg/kg daily for 28 days) [g] | BW loss ([4]; 50 mg/kg daily for 28 days) [%] | Final BW ([4]; 50 mg/kg daily for 28 days) [g] | BW loss ([4]; 100 mg/kg daily for 28 days) [%] | Final BW ([4]; 100 mg/kg daily for 28 days) [g] | Average particle size [5] [μm]
increased significantly | 51.3 | 24.08 | X50 = 3.05 μm | X90 = 13.48 μm | X50 = 5.08 μm | X90 = 21.97 μm | – | Cc1cc2c(c3ccccc13)C(=O)C(=O)C1=C2OC(C)C1(C)C (stereo not drawn) [Compound 51] | – | – | – | – | – | – | – | – | –
increased significantly | 41.05 | 13.81 | X50 = 2.41 μm | X90 = 24.57 μm | X50 = 3.15 μm | X90 = 22.41 μm | – | CC1OC2=C(C(=O)C(=O)c3c2ccc2c3CCCC2)C1(C)C (stereo not drawn) [Compound 44] | – | – | – | – | – | – | – | – | –
increased significantly | 86.12 | 78.12 | X50 = 2.48 μm | X90 = 5.38 μm | X50 = 3.61 μm | X90 = 20.09 μm | 10 | CC1CC2=C(O1)c1ccccc1C(=O)C2=O (stereo not drawn) [Compound 5] | – | – | – | – | – | – | – | – | –
